Patent US10426800B2, “Adipose tissue-derived stem cells for veterinary use” (CELL4VET CORPORATION, priority 2008, dated 2019)

What was measured:
Format in all cases: cell-based, rat
[1] = tested on: ADSC; test: EdU labeling of ADSC in vitro
Experimental: FIG. 9 depicts dosage effect. EdU was added to ADSC at 0, 10, 20, and 50 μM. Cellular location was identified by DAPI staining of the nucleus (which would be blue if color photos were used). EdU was detected by Alexa 594 (which would be red if color photos were used).
FIG. 10 show the results of a time-course study. ADSC were labeled with 10 μM EdU and then split at 1 day, 4 days, 7 days, 14 days, and 21 days. […] Higher magnification (1000×) of cells at day 21 is shown in panel C.
ADSCs were grown on glass coverslips in DMEM supplemented with 10% bovine calf serum, penicillin, and streptomycin. For dosage effect, EdU was added to the culture media at 0, 10, 20 and 50 μM. Twenty-four hours later, cells were washed with PBS followed by addition of regular culture media (FIG. 9). For time-course study, ADSC were labeled with 10 μM EdU and then split at 1 day, 4 days, 7 days, 14 days and 21 days (FIG. 10).
After methanol fixation, cells were washed twice with PBS and then incubated in 3% BSA in PBS followed by 0.5% Triton® X-100 in PBS for 20 minutes at room temperature. The cells were then incubated with freshly made Click-it reaction cocktail (Invitrogen) for 30 minutes at room temperature in the dark. Cells were counterstained with DAPI, mounted in standard mounting media and imaged by fluorescence microscopy.

[2] = tested on: RADSC-1 cells; test: Effect of FGFR inhibitor on ADSC endothelial differentiation (LDL-uptake); conditions: EGM2 or FGF2/vitamin C-supplemented EBM2, in the presence of PD173074
Experimental: RADSC-1 cells were grown in EGM2 or EBM2 supplemented with FGF2 and vitamin C in the presence or absence of FGFR inhibitor PD173074. The cells were then assayed for LDL-uptake. […] RADSC-1 cells were also grown in VEGF/vitamin C-supplemented EBM2 for the purpose of excluding the involvement of VEGF signaling, as PD173074 is known to have a weak inhibitory effect on VEGF receptor. Experiments were repeated 3 times.

[3] = tested on: RADSC-1 cells; test: LDL-uptake of ADSC grown in subtraction or addition EGM2/EBM2 media; conditions: for ADSC's LDL-uptake ability on omission of the factor from EGM2: one week in subtracted EGM2 medium; for ADSC's LDL-uptake ability in EBM2 supplemented with the factor: one week in addition medium
Description: Each partially supplemented EGM2 is indicated by the omitted factor; for example, “-FGF” denotes EGM2 without FGF2. Experiments were repeated 3 times.
Experiments were repeated 3 times.
EGM2 medium is supplied by the manufacturer in the form of a basal medium (EBM2) and individual vials of supplemental factors. […] Specifically, we prepared “subtraction” EGM2 media by omitting one supplemental factor at a time.

| Molecule | ADSC's LDL-uptake ability on omission of the factor from EGM2 [3] | other results |
| --- | --- | --- |
| C#Cc1cn([C@H]2C[C@H](O)[C@@H](CO)O2)c(=O)[nH]c1=O [EdU, 5-ethynyl-2-deoxyuridine] | – | EdU signal in the positively labeled cells ([1]; 10 μM EdU, 1 to 21 days, P<0.01): decreased with time; cells EdU-labeled ([1]; EdU 10, 20, 50 μM, regardless of concentration): approximately 50% |
| CCN(CC)CCCCNc1ncc2cc(-c3cc(OC)cc(OC)c3)c(NC(=O)NC(C)(C)C)nc2n1 [PD173074] | – | acquisition of LDL-uptake ability [2]: unable to do so |
| C[C@]12CCC(=O)C=C1CC[C@@H]1[C@@H]2[C@@H](O)C[C@@]2(C)[C@H]1CC[C@]2(O)C(=O)CO [hydrocortisone] | essentially no effect | – |
| O=C1O[C@H]([C@@H](O)CO)C(O)=C1O [vitamin C] | greatly diminished | ADSC's LDL-uptake ability in EBM2 supplemented with the factor [3]: still somewhat effective, but at a much reduced level |
| EGF: growth factor, supplemental factor of EGM2 medium | essentially no effect | – |
| FGF2: growth factor, supplemental factor of EGM2 medium | greatly diminished | ADSC's LDL-uptake ability in EBM2 supplemented with the factor [3]: still effective, albeit at a reduced level |
| VEGF | essentially no effect | – |
| heparin | essentially no effect | – |
